Measured values published in paper PMC7523345 (Investigational new drugs, 2018).
“Also recorded” adds a separate entry of the source.

Experiment: Phase I dose escalation study: safety, tolerability, DLT and MTD
Type: in vivo

SMILES: Cc1cccc2c1NC(=O)[C@@H](NC(=O)[C@H](CCC(F)(F)F)[C@H](CCC(F)(F)F)C(N)=O)N=C2c1cccc(F)c1 [BMS-986115]
- Diarrhoea (drug related AE, Grade 3 and 4) (Arm A QD 1.5 mg (N = 7)): 2 (29) n (%)
- Diarrhoea (drug related AE, all grades) (Arm A QD 1.5 mg (N = 7)): 6 (86) n (%)
- Dry mouth (drug related AE, all grades) (Arm A QD 1.5 mg (N = 7)): 0 n (%)
- Dry skin (drug related AE, all grades) (Arm A QD 1.5 mg (N = 7)): 1 (14) n (%)
- Dysgeusia (drug related AE, all grades) (Arm A QD 1.5 mg (N = 7)): 0 n (%)
- Dyspepsia (drug related AE, all grades) (Arm A QD 1.5 mg (N = 7)): 0 n (%)
- Dysphonia (drug related AE, all grades) (Arm A QD 1.5 mg (N = 7)): 1 (14) n (%)
- Fatigue (drug related AE, Grade 3 and 4) (Arm A QD 1.5 mg (N = 7)): 1 (14) n (%)
- Fatigue (drug related AE, all grades) (Arm A QD 1.5 mg (N = 7)): 4 (57) n (%)
- Flatulence (drug related AE, all grades) (Arm A QD 1.5 mg (N = 7)): 0 n (%)
- Hypocalcaemia (drug related AE, Grade 3 and 4) (Arm A QD 1.5 mg (N = 7)): 0 n (%)
- Hypocalcaemia (drug related AE, all grades) (Arm A QD 1.5 mg (N = 7)): 1 (14) n (%)
- Hypokalaemia (drug related AE, Grade 3 and 4) (Arm A QD 1.5 mg (N = 7)): 1 (14) n (%)
- Hypokalaemia (drug related AE, all grades) (Arm A QD 1.5 mg (N = 7)): 2 (29) n (%)
- Hyponatraemia (drug related AE, Grade 3 and 4) (Arm A QD 1.5 mg (N = 7)): 1 (14) n (%)
- Hyponatraemia (drug related AE, all grades) (Arm A QD 1.5 mg (N = 7)): 1 (14) n (%)
- Hypophosphataemia (drug related AE, Grade 3 and 4) (Arm A QD 1.5 mg (N = 7)): 2 (29) n (%)
- Hypophosphataemia (drug related AE, all grades) (Arm A QD 1.5 mg (N = 7)): 4 (57) n (%)
- Ileus (drug related AE, Grade 3 and 4) (Arm A QD 1.5 mg (N = 7)): 0 n (%)
- Increased upper airway secretion (drug related AE, all grades) (Arm A QD 1.5 mg (N = 7)): 0 n (%)
- Laryngeal pain (drug related AE, all grades) (Arm A QD 1.5 mg (N = 7)): 2 (29) n (%)
- Leucocytosis (drug related AE, Grade 3 and 4) (Arm A QD 1.5 mg (N = 7)): 0 n (%)
- Mouth ulceration (drug related AE, all grades) (Arm A QD 1.5 mg (N = 7)): 0 n (%)
- Nausea (drug related AE, Grade 3 and 4) (Arm A QD 1.5 mg (N = 7)): 2 (29) n (%)
- Nausea (drug related AE, all grades) (Arm A QD 1.5 mg (N = 7)): 5 (71) n (%)
- Pruritus (drug related AE, Grade 3 and 4) (Arm A QD 1.5 mg (N = 7)): 0 n (%)
- Pruritus (drug related AE, all grades) (Arm A QD 1.5 mg (N = 7)): 2 (29) n (%)
- Pulmonary embolism (drug related AE, Grade 3 and 4) (Arm A QD 1.5 mg (N = 7)): 1 (14) n (%)
- Rash (drug related AE, all grades) (Arm A QD 1.5 mg (N = 7)): 2 (29) n (%)
- Rash maculopapular (drug related AE, all grades) (Arm A QD 1.5 mg (N = 7)): 0 n (%)
- Sinusitis (drug related AE, all grades) (Arm A QD 1.5 mg (N = 7)): 0 n (%)
- Urticaria (drug related AE, Grade 3 and 4) (Arm A QD 1.5 mg (N = 7)): 0 n (%)
- Vision blurred (drug related AE, all grades) (Arm A QD 1.5 mg (N = 7)): 1 (14) n (%)
- Vomiting (drug related AE, Grade 3 and 4) (Arm A QD 1.5 mg (N = 7)): 0 n (%)
- Vomiting (drug related AE, all grades) (Arm A QD 1.5 mg (N = 7)): 4 (57) n (%)
- Weight decreased (drug related AE, all grades) (Arm A QD 1.5 mg (N = 7)): 1 (14) n (%)
- No. of patients with DLTs (Arm A QD 1.5 mg, 6 DLT evaluable patients): 1
- Description of DLT (Arm A QD 2.0 mg): Gr 3 ileus; Gr 3 nausea; Gr 3 pruritus/urticaria; also recorded: G3 ileus; also recorded: G3 nausea; also recorded: G3 pruritus/urticaria
- Abdominal distension (drug related AE, all grades) (Arm A QD 2.0 mg (N = 7)): 0 n (%)
- Abdominal pain (drug related AE, Grade 3 and 4) (Arm A QD 2.0 mg (N = 7)): 0 n (%)
- Abdominal pain (drug related AE, all grades) (Arm A QD 2.0 mg (N = 7)): 1 (14) n (%)
- Blood creatinine increased (drug related AE, all grades) (Arm A QD 2.0 mg (N = 7)): 1 (14) n (%)
- Colitis (drug related AE, Grade 3 and 4) (Arm A QD 2.0 mg (N = 7)): 0 n (%)
- Cough (drug related AE, Grade 3 and 4) (Arm A QD 2.0 mg (N = 7)): 1 (14) n (%)
- Cough (drug related AE, all grades) (Arm A QD 2.0 mg (N = 7)): 1 (14) n (%)
- Decreased Appetite (drug related AE, Grade 3 and 4) (Arm A QD 2.0 mg (N = 7)): 0 n (%)
- Decreased Appetite (drug related AE, all grades) (Arm A QD 2.0 mg (N = 7)): 5 (71) n (%)
- Dehydration (drug related AE, Grade 3 and 4) (Arm A QD 2.0 mg (N = 7)): 0 n (%)
- Dehydration (drug related AE, all grades) (Arm A QD 2.0 mg (N = 7)): 1 (14) n (%)
- Dermatitis acneiform (drug related AE, all grades) (Arm A QD 2.0 mg (N = 7)): 0 n (%)
- Diarrhoea (drug related AE, Grade 3 and 4) (Arm A QD 2.0 mg (N = 7)): 1 (14) n (%)
- Diarrhoea (drug related AE, all grades) (Arm A QD 2.0 mg (N = 7)): 5 (71) n (%)
- Dry mouth (drug related AE, all grades) (Arm A QD 2.0 mg (N = 7)): 1 (14) n (%)
- Dry skin (drug related AE, all grades) (Arm A QD 2.0 mg (N = 7)): 1 (14) n (%)
- Dysgeusia (drug related AE, all grades) (Arm A QD 2.0 mg (N = 7)): 1 (14) n (%)
- Dyspepsia (drug related AE, all grades) (Arm A QD 2.0 mg (N = 7)): 1 (14) n (%)
- Dysphonia (drug related AE, all grades) (Arm A QD 2.0 mg (N = 7)): 3 (43) n (%)
- Fatigue (drug related AE, Grade 3 and 4) (Arm A QD 2.0 mg (N = 7)): 0 n (%)
- Fatigue (drug related AE, all grades) (Arm A QD 2.0 mg (N = 7)): 4 (57) n (%)
- Flatulence (drug related AE, all grades) (Arm A QD 2.0 mg (N = 7)): 0 n (%)
- Hypocalcaemia (drug related AE, Grade 3 and 4) (Arm A QD 2.0 mg (N = 7)): 0 n (%)
- Hypocalcaemia (drug related AE, all grades) (Arm A QD 2.0 mg (N = 7)): 0 n (%)
- Hypokalaemia (drug related AE, Grade 3 and 4) (Arm A QD 2.0 mg (N = 7)): 2 (29) n (%)
- Hypokalaemia (drug related AE, all grades) (Arm A QD 2.0 mg (N = 7)): 2 (29) n (%)
- Hyponatraemia (drug related AE, Grade 3 and 4) (Arm A QD 2.0 mg (N = 7)): 0 n (%)
- Hyponatraemia (drug related AE, all grades) (Arm A QD 2.0 mg (N = 7)): 0 n (%)
- Hypophosphataemia (drug related AE, Grade 3 and 4) (Arm A QD 2.0 mg (N = 7)): 3 (43) n (%)
- Hypophosphataemia (drug related AE, all grades) (Arm A QD 2.0 mg (N = 7)): 3 (43) n (%)
- Ileus (drug related AE, Grade 3 and 4) (Arm A QD 2.0 mg (N = 7)): 1 (14) n (%)
- Increased upper airway secretion (drug related AE, all grades) (Arm A QD 2.0 mg (N = 7)): 0 n (%)
- Laryngeal pain (drug related AE, all grades) (Arm A QD 2.0 mg (N = 7)): 0 n (%)
